In patent publication US8247211B2, “Glycopeptide antibiotics” (American Cyanamid Company, priority 2001, dated 2012):

How the values were obtained:
Test in all cases: In vitro antibacterial evaluation: minimum inhibitory concentration (MIC), broth dilution method
Type in all cases: cell-based
Details in all cases: 18 hours at 35° C.
Enterococcus sp. = system: Enterococcus sp.
Method in brief: (§1)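 MIC read as lowest drug level preventing visible growth. Organisms at 5×10^5 CFU/mL were exposed to a 64-0.06 μg/mL dilution series in Muller-Hinton II […] following NCCLS broth dilution standard M7-A2.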

Escherichia coli = system: Escherichia coli
Method in brief: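 Broth dilution per NCCLS M7-A2 in Muller-Hinton II […], inoculum 5×10^5 CFU/mL, antibiotic tested over 64-0.06 μg/mL. MIC is taken as the lowest concentration that inhibits growth. Panel includes recent clinical isolates resistant to methicillin, penicillin and/or vancomycin.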

Staphylococcus sp. = system: Staphylococcus sp.
Method in brief: as §1

Streptococcus sp. = system: Streptococcus sp.
Method in brief: as §1

Substance: Tri-N-[(phenylmethoxy)carbonyl]-cyclo[glycyl-β-methylphenylalanyltyrosyl-3-(2-iminoimidazolidin-4-yl)seryl-3-β-(2,3:4,6-di-O-isopropylidenehexopyranosyl)-2-iminoimidazolidin-4-yl]seryl-O-(tert-butyldimethylsilyl)seryl] [Example 249]
- MIC Enterococcus avium (GC 4558) (Enterococcus sp.; Enterococcus avium (GC 4558)): 32 µg/mL
- MIC Enterococcus faecalis (ATCC 29212) (Enterococcus sp.; Enterococcus faecalis (ATCC 29212)): 16 µg/mL
- MIC Enterococcus faecalis (GC 2242) (Enterococcus sp.; Enterococcus faecalis (GC 2242)): 32 µg/mL
- MIC Enterococcus faecalis (GC 2691) (Enterococcus sp.; Enterococcus faecalis (GC 2691)): 128 µg/mL
- MIC Enterococcus faecalis (GC 3059) (Enterococcus sp.; Enterococcus faecalis (GC 3059)): 128 µg/mL
- MIC Enterococcus faecalis (GC 4552) (Enterococcus sp.; Enterococcus faecalis (GC 4552)): 64 µg/mL
- MIC Enterococcus faecalis (GC 4553) (Enterococcus sp.; Enterococcus faecalis (GC 4553)): 64 µg/mL
- MIC Enterococcus faecalis (GC 4554) (Enterococcus sp.; Enterococcus faecalis (GC 4554)): 128 µg/mL
- MIC Enterococcus faecalis (GC 6189) (Enterococcus sp.; Enterococcus faecalis (GC 6189)): 64 µg/mL
- MIC Enterococcus faecium (GC 2243) (Enterococcus sp.; Enterococcus faecium (GC 2243)): 64 µg/mL
- MIC Enterococcus faecium (GC 4556) (Enterococcus sp.; Enterococcus faecium (GC 4556)): 32 µg/mL
- MIC Enterococcus faecium (GC 4557) (Enterococcus sp.; Enterococcus faecium (GC 4557)): 64 µg/mL
- MIC Enterococcus faecalis (ATCC 29212) (Enterococcus sp.; broth dilution, strain ATCC 29212): 16 µg/mL
- MIC Enterococcus faecalis (GC 2242) (Enterococcus sp.; broth dilution, strain GC 2242): 32 µg/mL
- MIC Enterococcus faecium (GC 2243) (Enterococcus sp.; broth dilution, strain GC 2243): 64 µg/mL
- MIC Enterococcus faecalis (GC 2691) (Enterococcus sp.; broth dilution, strain GC 2691): 128 µg/mL
- MIC Enterococcus faecalis (GC 3059) (Enterococcus sp.; broth dilution, strain GC 3059): 128 µg/mL
- MIC Enterococcus faecalis (GC 4552) (Enterococcus sp.; broth dilution, strain GC 4552): 64 µg/mL
- MIC Enterococcus faecalis (GC 4553) (Enterococcus sp.; broth dilution, strain GC 4553): 64 µg/mL
- MIC Enterococcus faecalis (GC 4554) (Enterococcus sp.; broth dilution, strain GC 4554): 128 µg/mL
- MIC Enterococcus faecium (GC 4556) (Enterococcus sp.; broth dilution, strain GC 4556): 32 µg/mL
- MIC Enterococcus faecium (GC 4557) (Enterococcus sp.; broth dilution, strain GC 4557): 64 µg/mL
- MIC Enterococcus avium (GC 4558) (Enterococcus sp.; broth dilution, strain GC 4558): 32 µg/mL
- MIC Enterococcus faecalis (GC 6189) (Enterococcus sp.; broth dilution, strain GC 6189): 64 µg/mL
- MIC Escherichia coli (ATCC 25922) (Escherichia coli; Escherichia coli (ATCC 25922)): 128 µg/mL
- MIC Escherichia coli (GC 4559) (Escherichia coli; Escherichia coli (GC 4559)): 128 µg/mL
- MIC Escherichia coli (GC 4560) (Escherichia coli; Escherichia coli (GC 4560)): 128 µg/mL
- MIC Coagulase Negative Staphylococcus (GC 4547) (Staphylococcus sp.; Coagulase Negative Staphylococcus (GC 4547)): 64 µg/mL
- MIC Coagulase Negative Staphylococcus (GC 4548) (Staphylococcus sp.; Coagulase Negative Staphylococcus (GC 4548)): 128 µg/mL
- MIC Coagulase Negative Staphylococcus (GC 4549) (Staphylococcus sp.; Coagulase Negative Staphylococcus (GC 4549)): 128 µg/mL
- MIC Coagulase Negative Staphylococcus (GC 4551) (Staphylococcus sp.; Coagulase Negative Staphylococcus (GC 4551)): 64 µg/mL
- MIC Coagulase Negative Staphylococcus (GC 6257) (Staphylococcus sp.; Coagulase Negative Staphylococcus (GC 6257)): 128 µg/mL
- MIC Staphylococcus aureus (ATCC 29213) (Staphylococcus sp.; Staphylococcus aureus (ATCC 29213)): 128 µg/mL
- MIC Staphylococcus aureus (GC 1131) (Staphylococcus sp.; Staphylococcus aureus (GC 1131)): 128 µg/mL
- MIC Staphylococcus aureus (GC 3051) (Staphylococcus sp.; Staphylococcus aureus (GC 3051)): 128 µg/mL
- MIC Staphylococcus aureus (GC 3053) (Staphylococcus sp.; Staphylococcus aureus (GC 3053)): 128 µg/mL
- MIC Staphylococcus aureus (GC 4541) (Staphylococcus sp.; Staphylococcus aureus (GC 4541)): 128 µg/mL
- MIC Staphylococcus aureus (GC 4542) (Staphylococcus sp.; Staphylococcus aureus (GC 4542)): 64 µg/mL
- MIC Staphylococcus aureus (GC 4544) (Staphylococcus sp.; Staphylococcus aureus (GC 4544)): 64 µg/mL
- MIC Staphylococcus aureus (GC 4545) (Staphylococcus sp.; Staphylococcus aureus (GC 4545)): 128 µg/mL
- MIC Staphylococcus aureus-SMITH (GC 4543) (Staphylococcus sp.; Staphylococcus aureus-SMITH (GC 4543)): 128 µg/mL
- MIC Staphylococcus haemolyticus (GC 4546) (Staphylococcus sp.; Staphylococcus haemolyticus (GC 4546)): 128 µg/mL
- MIC Staphylococcus aureus (ATCC 29213) (Staphylococcus sp.; broth dilution, strain ATCC 29213): 128 µg/mL
- MIC Staphylococcus aureus (GC 1131) (Staphylococcus sp.; broth dilution, strain GC 1131): 128 µg/mL
- MIC Staphylococcus aureus (GC 3051) (Staphylococcus sp.; broth dilution, strain GC 3051): 128 µg/mL
- MIC Staphylococcus aureus (GC 3053) (Staphylococcus sp.; broth dilution, strain GC 3053): 128 µg/mL
- MIC Staphylococcus aureus (GC 4541) (Staphylococcus sp.; broth dilution, strain GC 4541): 128 µg/mL
- MIC Staphylococcus aureus (GC 4542) (Staphylococcus sp.; broth dilution, strain GC 4542): 64 µg/mL
- MIC Staphylococcus aureus-SMITH (GC 4543) (Staphylococcus sp.; broth dilution, strain GC 4543): 128 µg/mL
- MIC Staphylococcus aureus (GC 4544) (Staphylococcus sp.; broth dilution, strain GC 4544): 64 µg/mL
- MIC Staphylococcus aureus (GC 4545) (Staphylococcus sp.; broth dilution, strain GC 4545): 128 µg/mL
- MIC Staphylococcus haemolyticus (GC 4546) (Staphylococcus sp.; broth dilution, strain GC 4546): 128 µg/mL
- MIC Coagulase Negative Staphylococcus (GC 4547) (Staphylococcus sp.; broth dilution, strain GC 4547): 64 µg/mL
- MIC Coagulase Negative Staphylococcus (GC 4548) (Staphylococcus sp.; broth dilution, strain GC 4548): 128 µg/mL
- MIC Coagulase Negative Staphylococcus (GC 4549) (Staphylococcus sp.; broth dilution, strain GC 4549): 128 µg/mL
- MIC Coagulase Negative Staphylococcus (GC 4551) (Staphylococcus sp.; broth dilution, strain GC 4551): 64 µg/mL
- MIC Coagulase Negative Staphylococcus (GC 6257) (Staphylococcus sp.; broth dilution, strain GC 6257): 128 µg/mL
- MIC Streptococcus agalactiae (GC 4564) (Streptococcus sp.; Streptococcus agalactiae (GC 4564)): 128 µg/mL
- MIC Streptococcus pneumoniae (ATCC 6301) (Streptococcus sp.; Streptococcus pneumoniae (ATCC 6301)): 64 µg/mL
- MIC Streptococcus pneumoniae (GC 1894) (Streptococcus sp.; Streptococcus pneumoniae (GC 1894)): 32 µg/mL
- MIC Streptococcus pneumoniae (GC 4565) (Streptococcus sp.; Streptococcus pneumoniae (GC 4565)): 64 µg/mL
- MIC Streptococcus pyogenes (GC 4563) (Streptococcus sp.; Streptococcus pyogenes (GC 4563)): 128 µg/mL
- MIC Streptococcus pneumoniae (ATCC 6301) (Streptococcus sp.; broth dilution, strain ATCC 6301): 64 µg/mL
- MIC Streptococcus pneumoniae (GC 1894) (Streptococcus sp.; broth dilution, strain GC 1894): 32 µg/mL
- MIC Streptococcus pyogenes (GC 4563) (Streptococcus sp.; broth dilution, strain GC 4563): 128 µg/mL
- MIC Streptococcus agalactiae (GC 4564) (Streptococcus sp.; broth dilution, strain GC 4564): 128 µg/mL
- MIC Streptococcus pneumoniae (GC 4565) (Streptococcus sp.; broth dilution, strain GC 4565): 64 µg/mL
